Measured values as given in PMC4500165 (Pure and applied chemistry. Chimie pure et appliquee, 2013).

Molecular target: T1, peanut agglutinin (PNA) (Arachis hypogaea, UniProt P02872)
T1 sequence (P02872 24-273): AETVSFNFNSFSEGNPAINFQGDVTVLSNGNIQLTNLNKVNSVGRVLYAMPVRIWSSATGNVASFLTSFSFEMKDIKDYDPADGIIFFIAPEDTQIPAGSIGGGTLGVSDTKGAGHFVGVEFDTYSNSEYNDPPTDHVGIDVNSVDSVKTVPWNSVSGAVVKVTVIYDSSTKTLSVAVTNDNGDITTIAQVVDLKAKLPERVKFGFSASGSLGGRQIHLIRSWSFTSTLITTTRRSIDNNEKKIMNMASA
Experiment: isothermal titration calorimetry, one-site model
Format: binding

Kd: 549 µM
Structure (SMILES): [N-]=[N+]=Nc1c(F)c(F)c(C(=O)NCCOCCOCCS[C@@H]2O[C@H](CO)[C@@H](O[C@@H]3O[C@H](CO)[C@H](O)[C@H](O)[C@H]3O)[C@H](O)[C@H]2O)c(F)c1F [compound 5, 2-(2-(2-(4-Azido-2,3,5,6-tetrafluorobenzamido)ethoxy)ethoxy)ethyl 4-O-β-D-galactopyranosyl-1-thio-β-D-glucopyranoside]
